Test results as given in patent US12012417B2, “N-substituted tetrahydrothienopyridine derivatives and uses thereof” (NOVARTIS AG, priority 2018, dated 2024).

Key:
[1] = test system: Dengue 3 virus MY05-34640-WT-C6/36; assay: High-content imaging cell-based flavivirus immunodetection (HCl-CFI) assay, Dengue 3; settings: Dengue virus, A549, 48 h, read-out: Dengue 3 virus MY05-34640-WT-C6/36 in A549 using HCl [Inhibitor/IC50] Qualified AC50
[2] = test system: Dengue 4 virus MY01-22713; assay: High-content imaging cell-based flavivirus immunodetection (HCl-CFI) assay, Dengue 4; settings: Dengue virus, A549, 48 h, read-out: Dengue 4 virus MY01-22713 in A549 using HCl [Inhibitor/IC50] Qualified AC50, A549 cells, 48 h, viral E protein expression
[3] = test system: Dengue 2 virus MY97-10340; assay: High-content imaging cell-based flavivirus immunodetection (HCl-CFI) assay, Dengue 2; settings: Dengue virus, A549, 48 h, read-out: Dengue 2 virus MY97-10340 in A549 using HCl [Inhibitor/IC50] Qualified AC50, A549 cells, MOI 0.3, 48 h, viral E protein expression
How it was run: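 A549 cells infected at MOI 0.3, treated with 3-fold, 10-point compound dilutions for 48 h. After paraformaldehyde fixation, viral E protein immunostained with 4G2 antibody and nuclei counterstained; imaged by high-content imaging. EC50 = concentration reducing E protein expression by 50%, from dose-response curves.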

[4] = test system: Dengue 1 virus MY97-10245; assay: High-content imaging cell-based flavivirus immunodetection (HCl-CFI) assay, Dengue 1; settings: Dengue virus, A549, 48 h, read-out: Dengue 1 virus MY97-10245 in A549 using HCl [Inhibitor/IC50] Qualified AC50

COc1cc(S(N)(=O)=O)ccc1CC(=O)Nc1sc2c(c1C#N)CN(CC1CCCCC1)CC2 [Example 19, N-(3-cyano-5-(cyclohexylmethyl)-4,5,6,7-tetrahydrothieno[3,2-c]pyridin-2-yl)-2-(2-methoxy-4-sulfamoylphenyl)acetamide]
EC50 [1]: < 100 nM | EC50 [2]: < 100 nM | EC50 [3]: < 100 nM | EC50 [4]: < 100 nM

CC1Cc2sc(NC(=O)Cc3ccc(S(C)(=O)=O)cc3)c(C#N)c2CN1Cc1cccc(F)c1 (centres unmarked) [Example 69, N-(3-cyano-5-(3-fluorobenzyl)-6-methyl-4,5,6,7-tetrahydrothieno[3,2-c]pyridin-2-yl)-2-(4-(methylsulfonyl)phenyl)acetamide]
EC50 [1]: < 100 nM | EC50 [2]: < 100 nM | EC50 [3]: < 100 nM | EC50 [4]: 100 to 1000 nM

CC1(C)Cc2sc(NC(=O)Cc3ccc4c(c3)C(CN)CS4(=O)=O)c(C#N)c2CN1CC1CCCCC1 (centres unmarked) [Example 74, 2-(3-(aminomethyl)-1,1-dioxido-2,3-dihydrobenzo[b]thiophen-5-yl)-N-(3-cyano-5-(cyclohexylmethyl)-6,6-dimethyl-4,5,6,7-tetrahydrothieno[3,2-c]pyridin-2-yl)acetamide]
EC50 [1]: 100 to 1000 nM | EC50 [2]: 100 to 1000 nM | EC50 [3]: 100 to 1000 nM | EC50 [4]: 100 to 1000 nM

CS(=O)(=O)c1ccc(CC(=O)Nc2sc3c(c2C#N)CCN(Cc2ccc(F)c(F)c2)C3)cc1 [Example 117, N-(3-cyano-6-(3,4-difluorobenzyl)-4,5,6,7-tetrahydrothieno[2,3-c]pyridin-2-yl)-2-(4-(methylsulfonyl)phenyl)acetamide]
EC50 [1]: 100 to 1000 nM | EC50 [2]: < 100 nM | EC50 [3]: 100 to 1000 nM | EC50 [4]: 100 to 1000 nM

COc1cc(C#N)cc(CC(=O)Nc2sc3c(c2C#N)CN(Cc2cccc(F)c2)CC3)c1 [Example 38, N-(3-cyano-5-(3-fluorobenzyl)-4,5,6,7-tetrahydrothieno[3,2-c]pyridin-2-yl)-2-(3-cyano-5-methoxyphenyl)acetamide]
EC50 [1]: 100 to 1000 nM | EC50 [2]: 100 to 1000 nM | EC50 [3]: 100 to 1000 nM | EC50 [4]: > 1000 nM

COCCOc1cccc(CC(=O)Nc2sc3c(c2C#N)CN(CC2CCCCC2)CC3)c1 [Example 15, N-(3-cyano-5-(cyclohexylmethyl)-4,5,6,7-tetrahydrothieno[3,2-c]pyridin-2-yl)-2-(3-(2-methoxyethoxy)phenyl)acetamide]
EC50 [1]: 100 to 1000 nM | EC50 [2]: 100 to 1000 nM | EC50 [3]: 100 to 1000 nM | EC50 [4]: 100 to 1000 nM

CC1(C)CS(=O)(=O)c2ccc(CC(=O)Nc3sc4c(c3C#N)CN(Cc3cccc(F)c3)C(C)(C)C4)cc21 [Example 80, N-(3-cyano-5-(3-fluorobenzyl)-6,6-dimethyl-4,5,6,7-tetrahydrothieno[3,2-c]pyridin-2-yl)-2-(3,3-dimethyl-1,1-dioxido-2,3-dihydrobenzo[b]thiophen-5-yl)acetamide]
EC50 [1]: < 100 nM | EC50 [2]: < 100 nM | EC50 [3]: < 100 nM | EC50 [4]: 100 to 1000 nM

CC1Cc2sc(NC(=O)Cc3ccc(S(N)(=O)=O)cc3)c(C#N)c2CN1Cc1cc(Cl)ccc1Cl (centres unmarked) [Example 64, N-(3-cyano-5-(2,5-dichlorobenzyl)-6-methyl-4,5,6,7-tetrahydrothieno[3,2-c]pyridin-2-yl)-2-(4-sulfamoylphenyl)acetamide]
EC50 [1]: < 100 nM | EC50 [2]: < 100 nM | EC50 [3]: < 100 nM | EC50 [4]: < 100 nM

CC1(C)CS(=O)(=O)c2ccc(CC(=O)Nc3sc4c(c3C#N)CN(CC3CCCCC3)C(C)(C)C4)cc21 [Example 72, N-(3-cyano-5-(cyclohexylmethyl)-6,6-dimethyl-4,5,6,7-tetrahydrothieno[3,2-c]pyridin-2-yl)-2-(3,3-dimethyl-1,1-dioxido-2,3-dihydrobenzo[b]thiophen-5-yl)acetamide]
EC50 [1]: < 100 nM | EC50 [2]: < 100 nM | EC50 [3]: < 100 nM | EC50 [4]: < 100 nM

CC1Cc2c(sc(NC(=O)Cc3ccc(S(N)(=O)=O)cc3)c2C#N)CN1Cc1cccc(F)c1 (centres unmarked) [Example 122, N-(3-cyano-6-(3-fluorobenzyl)-5-methyl-4,5,6,7-tetrahydrothieno[2,3-c]pyridin-2-yl)-2-(4-sulfamoylphenyl)acetamide]
EC50 [1]: 100 to 1000 nM | EC50 [2]: < 100 nM | EC50 [3]: < 100 nM | EC50 [4]: > 1000 nM

CS(=O)(=O)c1ccc(CC(=O)Nc2sc3c(c2C#N)CN(Cc2cccc(F)c2)CC3)cc1C#N [Example 27, 2-(3-cyano-4-(methylsulfonyl)phenyl)-N-(3-cyano-5-(3-fluorobenzyl)-4,5,6,7-tetrahydrothieno[3,2-c]pyridin-2-yl)acetamide]
EC50 [1]: < 100 nM | EC50 [2]: < 100 nM | EC50 [3]: < 100 nM | EC50 [4]: 100 to 1000 nM

N#Cc1c(NC(=O)Cc2ccc(S(N)(=O)=O)cc2)sc2c1CN(CC13CC(F)(C1)C3)CC2 [Example 1, N-(3-cyano-5-((3-fluorobicyclo[1.1.1]pentan-1-yl)methyl)-4,5,6,7-tetrahydrothieno[3,2-c]pyridin-2-yl)-2-(4-sulfamoylphenyl)acetamide]
EC50 [1]: 100 to 1000 nM | EC50 [2]: 100 to 1000 nM | EC50 [3]: 100 to 1000 nM | EC50 [4]: > 1000 nM

COc1cccc(CC(=O)Nc2sc3c(c2C#N)CN(Cc2cccc(F)c2)CC3)c1F [Example 40, N-(3-cyano-5-(3-fluorobenzyl)-4,5,6,7-tetrahydrothieno[3,2-c]pyridin-2-yl)-2-(2-fluoro-3-methoxyphenyl)acetamide]
EC50 [1]: 100 to 1000 nM | EC50 [2]: 100 to 1000 nM | EC50 [3]: 100 to 1000 nM | EC50 [4]: > 1000 nM

COC(=O)c1cccc(CN2CCc3c(sc(NC(=O)Cc4ccc(S(N)(=O)=O)cc4)c3C#N)C2)c1 [Example 108, Methyl 3-((3-cyano-2-(2-(4-sulfamoylphenyl)acetamido)-4,7-dihydrothieno[2,3-c]pyridin-6(5H)-yl)methyl)benzoate]
EC50 [1]: < 100 nM | EC50 [2]: < 100 nM | EC50 [3]: < 100 nM | EC50 [4]: 100 to 1000 nM

CCOc1cc(CC(=O)Nc2sc3c(c2C#N)CN(Cc2cccc(F)c2)CC3)ccc1C(N)=O [Example 89, 4-(2-((3-cyano-5-(3-fluorobenzyl)-4,5,6,7-tetrahydrothieno[3,2-c]pyridin-2-yl)amino)-2-oxoethyl)-2-ethoxybenzamide]
EC50 [1]: 100 to 1000 nM | EC50 [2]: 100 to 1000 nM | EC50 [3]: 100 to 1000 nM | EC50 [4]: 100 to 1000 nM

N#Cc1c(NC(=O)Cc2ccc(S(N)(=O)=O)cc2)sc2c1CCN(Cc1cc(F)ccc1F)C2 [Example 113, N-(3-cyano-6-(2,5-difluorobenzyl)-4,5,6,7-tetrahydrothieno[2,3-c]pyridin-2-yl)-2-(4-sulfamoylphenyl)acetamide]
EC50 [1]: < 100 nM | EC50 [2]: < 100 nM | EC50 [3]: < 100 nM | EC50 [4]: 100 to 1000 nM

N#Cc1c(NC(=O)Cc2ccc(S(N)(=O)=O)cc2)sc2c1CCCN(Cc1cccc(F)c1)C2 [Example 126, N-(3-cyano-7-(3-fluorobenzyl)-5,6,7,8-tetrahydro-4H-thieno[2,3-c]azepin-2-yl)-2-(4-sulfamoylphenyl)acetamide]
EC50 [1]: 100 to 1000 nM | EC50 [2]: < 100 nM | EC50 [3]: 100 to 1000 nM | EC50 [4]: 100 to 1000 nM

CS(=O)(=O)Nc1ccc(CC(=O)Nc2sc3c(c2C#N)CN(Cc2cccc(F)c2)CC3)cc1 [Example 46, N-(3-cyano-5-(3-fluorobenzyl)-4,5,6,7-tetrahydrothieno[3,2-c]pyridin-2-yl)-2-(4-(methylsulfonamido)phenyl)acetamide]
EC50 [1]: 100 to 1000 nM | EC50 [2]: 100 to 1000 nM | EC50 [3]: 100 to 1000 nM | EC50 [4]: 100 to 1000 nM

COc1cc(CC(=O)Nc2sc3c(c2C#N)CN(CC2CC(F)(F)C2)CC3)ccc1S(C)(=O)=O [Example 51, N-(3-cyano-5-((3,3-difluorocyclobutyl)methyl)-4,5,6,7-tetrahydrothieno[3,2-c]pyridin-2-yl)-2-(3-methoxy-4-(methylsulfonyl)phenyl)acetamide]
EC50 [1]: 100 to 1000 nM | EC50 [2]: 100 to 1000 nM | EC50 [3]: 100 to 1000 nM | EC50 [4]: 100 to 1000 nM

N#Cc1c(NC(=O)Cc2ccc(S(=O)(=O)C(F)F)cc2)sc2c1CN(CC1CCCCC1)CC2 [Example 11, N-(3-cyano-5-(cyclohexylmethyl)-4,5,6,7-tetrahydrothieno[3,2-c]pyridin-2-yl)-2-(4-((difluoromethyl)sulfonyl)phenyl)acetamide]
EC50 [1]: < 100 nM | EC50 [2]: < 100 nM | EC50 [3]: 100 to 1000 nM | EC50 [4]: < 100 nM

CS(=O)(=O)Nc1ccc(CC(=O)Nc2sc3c(c2C#N)CN(CC2CCCCC2)CC3)cc1 [Example 13, N-(3-cyano-5-(cyclohexylmethyl)-4,5,6,7-tetrahydrothieno[3,2-c]pyridin-2-yl)-2-(4-(methylsulfonamido)phenyl)acetamide]
EC50 [1]: 100 to 1000 nM | EC50 [2]: 100 to 1000 nM | EC50 [3]: 100 to 1000 nM | EC50 [4]: 100 to 1000 nM

N#Cc1c(NC(=O)Cc2ccc3c(c2)CNS3(=O)=O)sc2c1CN(CC1CC(F)(F)C1)CC2 [Example 52, N-(3-cyano-5-((3,3-difluorocyclobutyl)methyl)-4,5,6,7-tetrahydrothieno[3,2-c]pyridin-2-yl)-2-(1,1-dioxido-2,3-dihydrobenzo[d]isothiazol-5-yl)acetamide]
EC50 [1]: 100 to 1000 nM | EC50 [2]: 100 to 1000 nM | EC50 [3]: 100 to 1000 nM | EC50 [4]: > 1000 nM

COCCOc1cccc(CC(=O)Nc2sc3c(c2C#N)CN(Cc2cccc(F)c2)CC3)c1 [Example 31, N-(3-cyano-5-(3-fluorobenzyl)-4,5,6,7-tetrahydrothieno[3,2-c]pyridin-2-yl)-2-(3-(2-methoxyethoxy)phenyl)acetamide]
EC50 [1]: 100 to 1000 nM | EC50 [2]: 100 to 1000 nM | EC50 [3]: 100 to 1000 nM | EC50 [4]: > 1000 nM
